Among the data in ChEMBL document CHEMBL1221220, “Transport and signaling via the amino acid binding site of the yeast Gap1 amino acid transceptor” (Nat Chem Biol, 2009) are Activity values, retold here.

Where a chain is given by its changes, count along the chain named. The source made the active and inactive calls. The calls are words filed in the database; no cut-off is given here.

Experiment [1] relates to T1, General amino-acid permease GAP1 (Saccharomyces cerevisiae), P19145 [A405C].
T1 sequence (whole entry): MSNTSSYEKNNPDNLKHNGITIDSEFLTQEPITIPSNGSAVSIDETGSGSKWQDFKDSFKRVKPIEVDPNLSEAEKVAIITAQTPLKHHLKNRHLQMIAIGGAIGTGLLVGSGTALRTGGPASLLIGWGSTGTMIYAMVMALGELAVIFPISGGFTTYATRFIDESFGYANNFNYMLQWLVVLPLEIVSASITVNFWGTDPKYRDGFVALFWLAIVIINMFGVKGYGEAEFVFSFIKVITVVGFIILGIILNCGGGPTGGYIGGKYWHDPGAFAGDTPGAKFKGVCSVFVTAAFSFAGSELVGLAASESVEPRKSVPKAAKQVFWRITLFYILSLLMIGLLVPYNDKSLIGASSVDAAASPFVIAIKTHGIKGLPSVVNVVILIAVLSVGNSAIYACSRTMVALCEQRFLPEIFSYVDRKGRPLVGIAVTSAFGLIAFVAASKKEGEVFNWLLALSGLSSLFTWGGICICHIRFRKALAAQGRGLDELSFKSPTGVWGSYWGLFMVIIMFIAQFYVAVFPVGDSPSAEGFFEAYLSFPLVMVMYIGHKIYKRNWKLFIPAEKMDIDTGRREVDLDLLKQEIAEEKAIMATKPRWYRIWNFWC
Put plainly: Activation of yeast Gap1 A405C mutant-mediated amino acid uptake at 10 mM.

For experiment [2], the system named is T2, General amino-acid permease GAP1 (Saccharomyces cerevisiae), P19145 [N391C].
T2 sequence (whole entry): T1 sequence (whole entry) with N391C, C405A
The experiment in a line: Induction of yeast Gap1 N391C mutant-mediated amino acid uptake at 2 mM in presence of 10 mM MTSEA treated before compound addition.

The subject of experiment [3] is T3, General amino-acid permease GAP1 (Saccharomyces cerevisiae), P19145 [L387C].
T3 sequence (whole entry): T1 sequence (whole entry) with L387C, C405A
Put plainly: Induction of yeast Gap1 L387C mutant-mediated amino acid uptake at 2 mM in presence of 10 mM MTSEA treated before compound addition.

Experiment [4] has as its system T4, General amino-acid permease GAP1 (Saccharomyces cerevisiae), P19145 [M401C].
T4 sequence (whole entry): T1 sequence (whole entry) with M401C, C405A
The experiment in a line: Induction of yeast Gap1 M401C mutant-mediated trehalose activation at 10 mM.

Take `NC(=O)NCCC[C@H](N)C(=O)O`: the outcome in experiment [1] and in experiment [4] was inactive. The outcome in experiment [2] and in experiment [3] was Active.
